Measurements taken from patent US4421767A, “Compounds and methods for treating depression” (priority 1982, dated 1983).

System: MAO
Experiment: In vitro MAO inhibition
Format: biochemical

For `NC(C(=O)O)C(=CF)c1cccc(O)c1` (racemic) [AFHBA, 2-Amino-4-fluoro-3-(3'-hydroxyphenyl)-3-butenoic acid], the “MAO inhibition in vitro” value was “inactive or very weak inhibitor”.
